Laboratory results as given in patent US20080280952A1 (priority 2004, published 2008).

Biological target: T1, human cannabinoid CB2 receptor (Homo sapiens, UniProt P34972)
T1 construct: expressed in transfected cells; host or cells: Saccharomyces cerevisiae strain MMY23 (cassette integrated at the ura3 locus, GPD promoter)
Test: Cannabinoid CB2 receptor agonist activity, yeast reporter assay
Type: cell-based
Details: for Emax: read-out: efficacy (Emax) at the cloned human cannabinoid CB2 receptor
Description: The cannabinoid CB2 receptor agonist activity of the compounds of formula (I) was determined in accordance with the following experimental method.
Yeast (Saccharomyces cerevisiae) cells expressing the human cannabinoid CB2 receptor were generated by integration of an expression cassette into the ura3 chromosomal locus of yeast strain MMY23. This cassette consisted of DNA sequence encoding the human CB2 receptor flanked by the yeast GPD promoter to the 5′ end of CB2 and a yeast transcriptional terminator sequence to the 3′ end of CB2. MMY23 expresses a yeast/mammalian chimeric G-protein alpha subunit in which the C-terminal 5 amino acids of Gpa1 are replaced with the C-terminal 5 amino acids of human Gαi3 (as described in Brown et al. (2000), Yeast 16:11-22).
Agonists were prepared as 10 mM stocks in DMSO. […] Agonist solutions in DMSO (1% final assay volume) were transferred into black, clear bottom, microtitre plates from NUNC (96- or 384-well). Cells were suspended at a density of 0.2 OD600/ml in SC media lacking histidine, uracil, tryptophan, adenine and leucine and supplemented with 10 mM 3-aminotriazole, 0.1M sodium phosphate pH 7.0, and […] fluorescein di-β-D-glucopyranoside (FDGlu). […] Fluorescence was plotted against compound concentration and iteratively curve fitted using a four parameter fit to generate a concentration effect value. Efficacy (Emax) was calculated from the equation
Equieffective molar ratio (EMR) values were calculated from the equation

T1 sequence (P34972 whole entry): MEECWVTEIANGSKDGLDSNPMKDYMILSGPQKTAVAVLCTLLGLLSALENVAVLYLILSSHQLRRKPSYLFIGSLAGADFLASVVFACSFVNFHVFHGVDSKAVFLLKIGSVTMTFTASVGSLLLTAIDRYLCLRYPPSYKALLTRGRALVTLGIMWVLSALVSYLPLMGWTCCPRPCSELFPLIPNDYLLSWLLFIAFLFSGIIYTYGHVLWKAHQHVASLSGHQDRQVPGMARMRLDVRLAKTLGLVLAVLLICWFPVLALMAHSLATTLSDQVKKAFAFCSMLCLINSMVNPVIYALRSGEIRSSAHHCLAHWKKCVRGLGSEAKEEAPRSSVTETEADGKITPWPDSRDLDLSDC

O=C(NCC1CCOCC1)c1cnc(Nc2cc(Cl)ccc2F)cc1C1CC1 [Example 101, 6-(5-Chloro-2-fluoro-phenylamino)-4-cyclopropyl-N-(tetrahydro-pyran-4-ylmethyl)-nicotinamide]
EC50: 300 to 1000 nM
Emax: > 50%

O=C(NCC1CCOCC1)c1cnc(Nc2cccc(Cl)c2Cl)cc1C1CCCC1 [Example 25, 4-Cyclopentyl-6-(2,3-dichloro-phenylamino)-N-(tetrahydro-pyran-4-ylmethyl)-nicotinamide]
EC50: 300 to 1000 nM
Emax: > 50%

O=C(NCC1CCOCC1)c1ccc(Nc2cccc(OC(F)(F)F)c2)nc1C1CC1 [Example 127, 2-Cyclopropyl-N-(tetrahydro-pyran-4-ylmethyl)-6-(3-trifluoromethoxy-phenylamino)-nicotinamide]
EC50: 300 to 1000 nM
Emax: > 50%

O=C(NCC1CCOCC1)c1cnc(Nc2ccc(C(F)(F)F)c(F)c2)cc1C1CC1 [Example 92, 4-Cyclopropyl-6-(3-fluoro-4-trifluoromethyl-phenylamino)-N-(tetrahydro-pyran-4-ylmethyl)-nicotinamide]
EC50: 300 to 1000 nM
Emax: > 50%

O=C(NCC1CCOCC1)c1cnc(Nc2ccc(F)c(F)c2)cc1C1CC1 [Example 113, 4-Cyclopropyl-6-(3,4-difluoro-phenylamino)-N-(tetrahydro-pyran-4-ylmethyl)-nicotinamide]
EC50: 300 to 1000 nM
Emax: > 50%

Cc1cc(Cl)ccc1Nc1cc(C2CCCC2)c(C(=O)NCC2CCOCC2)cn1 [Example 23, 6-(4-Chloro-2-methyl-phenylamino)-4-cyclopentyl-N-(tetrahydro-pyran-4-ylmethyl)-nicotinamide]
EC50: 300 to 1000 nM
Emax: > 50%

Cc1cccc(Nc2cc(C3CC3)c(C(=O)NCC3CCOCC3)cn2)c1C#N [Example 109, 6-(2-Cyano-3-methyl-phenylamino)-4-cyclopropyl-N-(tetrahydro-pyran-4-ylmethyl)-nicotinamide]
EC50: 300 to 1000 nM
Emax: > 50%

O=C(NCC1CCOCC1)c1cnc(Nc2ccc(Cl)cc2F)cc1C1CCCC1 [Example 24, 6-(4-Chloro-2-fluoro-phenylamino)-4-cyclopentyl-N-(tetrahydro-pyran-4-ylmethyl)-nicotinamide]
EC50: 300 to 1000 nM
Emax: > 50%

O=C(NCC1CCOCC1)c1cnc(Nc2ccc(F)c(Cl)c2)cc1C1CC1 [Example 21, 6-(3-Chloro-4-fluoro-phenylamino)-4-cyclopropyl-N-(tetrahydro-pyran-4-ylmethyl)-nicotinamide]
EC50: 300 to 1000 nM
Emax: > 50%

O=C(NCC1CCOCC1)c1cnc(Nc2cccc(C(F)(F)F)c2F)cc1C1CC1 [Example 20, 4-Cyclopropyl-6-(2-fluoro-3-trifluoromethyl-phenylamino)-N-(tetrahydro-pyran-4-ylmethyl)-nicotinamide]
EC50: 300 to 1000 nM
Emax: > 50%

Cc1ccc(Cl)cc1Nc1cc(C2CC2)c(C(=O)NCC2CCOCC2)cn1 [Example 105, 6-(5-Chloro-2-methyl-phenylamino)-4-cyclopropyl-N-(tetrahydro-pyran-4-ylmethyl)-nicotinamide]
EC50: 300 to 1000 nM
Emax: > 50%

O=C(NCC1CCOCC1)c1cnc(Nc2ccc(F)cc2Cl)cc1C1CCCC1 [Example 22, 6-(2-Chloro-4-fluoro-phenylamino)-4-cyclopentyl-N-(tetrahydro-pyran-4-ylmethyl)-nicotinamide]
EC50: 300 to 1000 nM
Emax: > 50%

O=C(NCC1CCOCC1)c1cnc(Nc2cc(C(F)(F)F)ccc2Br)cc1C1CC1 [Example 104, 6-(2-Bromo-5-trifluoromethyl-phenylamino)-4-cyclopropyl-N-(tetrahydro-pyran-4-ylmethyl)-nicotinamide]
EC50: 300 to 1000 nM
Emax: > 50%

O=C(NCC1CCOCC1)c1cnc(Nc2cccc(F)c2)cc1C1CCCC1 [Example 15, 4-Cyclopentyl-6-(3-fluoro-phenylamino)-N-(tetrahydro-pyran-4-ylmethyl)-nicotinamide]
EC50: 300 to 1000 nM
Emax: > 50%

Cc1cc(Nc2cc(C3CC3)c(C(=O)NCC3CCOCC3)cn2)ccc1Br [Example 110, 6-(4-Bromo-3-methyl-phenylamino)-4-cyclopropyl-N-(tetrahydro-pyran-4-ylmethyl)-nicotinamide]
EC50: 300 to 1000 nM
Emax: > 50%

O=C(NCC1CCOCC1)c1ccc(Nc2cccc(Br)c2)nc1C1CC1 [Example 126, 6-(3-Bromo-phenylamino)-2-cyclopropyl-N-(tetrahydro-pyran-4-ylmethyl)-nicotinamide]
EC50: 300 to 1000 nM
Emax: > 50%

COc1cccc(Nc2cc(C3CC3)c(C(=O)NCC3CCC3)cn2)c1 [Example 115, N-Cyclobutylmethyl-4-cyclopropyl-6-(3-methoxy-phenylamino)-nicotinamide]
EC50: 300 to 1000 nM
Emax: > 50%

O=C(NCC1CCOCC1)c1cnc(Nc2cc(F)ccc2Cl)cc1C1CC1 [Example 108, 6-(2-Chloro-5-fluoro-phenylamino)-4-cyclopropyl-N-(tetrahydro-pyran-4-ylmethyl)-nicotinamide]
EC50: 300 to 1000 nM
Emax: > 50%

Cc1ccc(Nc2cc(C3CC3)c(C(=O)NCC3CCOCC3)cn2)cc1Cl [Example 112, 6-(3-Chloro-4-methyl-phenylamino)-4-cyclopropyl-N-(tetrahydro-pyran-4-ylmethyl)-nicotinamide]
EC50: 300 to 1000 nM
Emax: > 50%

O=C(NCC1CCOCC1)c1cnc(Nc2ccc(F)c(C(F)(F)F)c2)cc1C1CC1 [Example 93, 4-Cyclopropyl-6-(4-fluoro-3-trifluoromethyl-phenylamino)-N-(tetrahydro-pyran-4-ylmethyl)-nicotinamide]
EC50: 300 to 1000 nM
Emax: > 50%

O=C(NCC1CCCC1)c1cnc(Nc2ccc(F)cc2F)cc1C1CC1 [Example 99, N-Cyclopentylmethyl-4-cyclopropyl-6-(2,4-difluoro-phenylamino)-nicotinamide]
EC50: 300 to 1000 nM
Emax: > 50%

O=C(NCC1CCOCC1)c1cnc(Nc2ccc(Br)cc2F)cc1C1CC1 [Example 94, 6-(4-Bromo-2-fluoro-phenylamino)-4-cyclopropyl-N-(tetrahydro-pyran-4-ylmethyl)-nicotinamide]
EC50: 300 to 1000 nM
Emax: > 50%

N#Cc1ccc(Nc2cc(C3CCCC3)c(C(=O)NCC3CCOCC3)cn2)cc1 [Example 27, 6-(4-Cyano-phenylamino)-4-cyclopentyl-N-(tetrahydro-pyran-4-ylmethyl)-nicotinamide]
EC50: 300 to 1000 nM
Emax: > 50%

Cc1ccc(Nc2cc(C3CC3)c(C(=O)NCC3CCOCC3)cn2)cc1F [Example 111, 4-Cyclopropyl-6-(3-fluoro-4-methyl-phenylamino)-N-(tetrahydro-pyran-4-ylmethyl)-nicotinamide]
EC50: 300 to 1000 nM
Emax: > 50%

O=C(NCC1CCC1)c1cnc(Nc2ccc(F)cc2Cl)cc1C1CC1 [Example 116]
EC50: 300 to 1000 nM
Emax: > 50%

O=C(NCC1CCOCC1)c1cnc(Nc2cc(C(F)(F)F)ccc2Cl)cc1C1CC1 [Example 103, 6-(2-Chloro-5-trifluoromethyl-phenylamino)-4-cyclopropyl-N-(tetrahydro-pyran-4-ylmethyl)-nicotinamide]
EC50: 300 to 1000 nM
Emax: > 50%

N#Cc1cccc(Nc2cc(C3CCCC3)c(C(=O)NCC3CCOCC3)cn2)c1 [Example 16, 6-(3-Cyano-phenylamino)-4-cyclopentyl-N-(tetrahydro-pyran-4-ylmethyl)-nicotinamide]
EC50: 300 to 1000 nM
Emax: > 50%
